The term EC50 denotes the midpoint of the concentration-response curve.

Among the data in patent publication US10981932B2, “Macrocyclic indole derivatives” (Bayer Aktiengesellschaft, priority 2016, dated 2021) are IC50 and EC50 values, retold here.

The target in one test is MCL-1 (Homo sapiens, UniProt Q07820). As to the kind of experiment: Protein-protein interaction assay MCL-1/Noxa BH3 peptide (MCL-1 assay), TR-FRET. The test is classed as binding. The note with it: MBP-MCL-1 / Noxa BH3-derived peptide, median. The method in brief:
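Inhibition values were normalized between DMSO controls with all reagents and controls lacking MCL-1. The binding competition used 1 nM MBP-MCL-1 in pH 7 Tris buffer containing 50 mM KF and 100 mM NaCl, with a 10 min compound preincubation at 22 °C.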
(In general: TR-FRET usually uses a lanthanide donor and a delayed reading to cut background.)

Test [1] has as its system SUDHL5. Description: Induction of caspase-3/7 activity (Caspase-Glo 3/7), SUDHL5. Format: cell-based. The note with it: Homo sapiens, SU-DHL-5, 3 h, caspase-3/7 induction, SUDHL5 cells, 3 h treatment; median. In a few lines: (§1)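 Apoptosis induction measured as caspase-3/7 activity (Caspase-Glo 3/7) in DLBCL lines after 3 h treatment at 37 °C; EC50 derived relative to the reference compound's maximal induction, with C0 fixed at 1.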

For test [2], the system named is SUDHL10. Description: Induction of caspase-3/7 activity (Caspase-Glo 3/7), SUDHL10. The test is classed as cell-based. The note with it: Homo sapiens, SU-DHL10, 3 h, caspase-3/7 induction, SUDHL10 cells, 3 h treatment; median. In a few lines: as §1
In test [3] the test system is SUDHL5. As to the kind of experiment: Anti-proliferative effect (CellTiter-Glo, 72 h), SUDHL5. The test is classed as cell-based. The settings on record: Homo sapiens, SU-DHL-5, 72 h, SUDHL5 cells, antiproliferation, 72 h, median, read-out: Antiproli SUDHL5 [M] (median). In a few lines:
(§2)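 After seeding, one plate is read right away by CellTiter-Glo luminescence to fix time zero. The treated plates stay at 37 °C in humidified air for 72 h and are then measured with the same reagent and 10 min incubation.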

Test [4] has as its system SUDHL10. As to the kind of experiment: Anti-proliferative effect (CellTiter-Glo, 72 h), SUDHL10. The test is classed as cell-based. The settings on record: Homo sapiens, SU-DHL10, 72 h, SUDHL10 cells, antiproliferation, 72 h, median, read-out: Antiproli SUDHL10 [M] (median). In a few lines: as §2
(In general: ATP-based viability assays read luminescence as a measure of living cells.)

A further test deals with A2780. Description: Anti-proliferative effect (CellTiter-Glo, 72 h), A2780. The test is classed as cell-based. The note with it: Homo sapiens, A2780, 72 h, A2780 cells, median, read-out: IC50 antiproliferation assay A2780 [M] (median). The method in brief: as §2
Test [5] deals with SUDHL5. As to the kind of experiment: Induction of cytotoxicity (CellTiter-Glo, 5 h), SUDHL5. The note with it: Homo sapiens, SU-DHL-5, 5 h, read-out: Cytotox SUDHL5 [M] (median), SUDHL5 cells, cytotoxicity induction, CellTiter-Glo, 5 h, median.
The subject of test [6] is SUDHL10. Description: Induction of cytotoxicity (CellTiter-Glo, 5 h), SUDHL10. The settings on record: Homo sapiens, SU-DHL10, 5 h, read-out: Cytotox SUDHL10 [M] (median), SUDHL10 cells, cytotoxicity induction, CellTiter-Glo, 5 h, median.

Chain of MCL-1 (Q07820 whole entry): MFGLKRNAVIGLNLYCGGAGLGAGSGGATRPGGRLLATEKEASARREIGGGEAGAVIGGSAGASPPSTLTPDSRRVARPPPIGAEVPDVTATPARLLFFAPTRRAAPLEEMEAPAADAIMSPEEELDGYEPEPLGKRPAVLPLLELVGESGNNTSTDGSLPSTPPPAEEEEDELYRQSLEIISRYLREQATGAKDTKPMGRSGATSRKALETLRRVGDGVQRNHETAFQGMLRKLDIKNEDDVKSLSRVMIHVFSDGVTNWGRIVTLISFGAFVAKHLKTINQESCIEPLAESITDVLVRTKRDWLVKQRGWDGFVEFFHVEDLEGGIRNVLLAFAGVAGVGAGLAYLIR

Take `Cn1nc(CN2CCCCC2=O)c2c1COCCCCn1c(C(=O)O)c(CCCOc3cccc4ccccc34)c3cccc-2c31` (racemic) [Example 325, (rac)-1-methyl-7-[3-(naphthalen-1-yloxy)propyl]-3-[(2-oxopiperidin-1-yl)methyl]-1,10,11,12,13,15-hexahydropyrazolo[4′,3′:9,10][1,6]oxazacycloundecino[8,7,6-hi]indole-8-carboxylic Acid]: the IC50 on MCL-1 was 0.0802 µM; in the test on SUDHL5 [3], 2.13e-05 M; in the test on SUDHL10 [4], 1.45e-05 M; in the test with A2780, more than 3.3e-05 M; with SUDHL5 [5], more than 3.3e-05 M; in the test on SUDHL10 [6] it was more than 3.3e-05 M. The EC50 in the test with SUDHL5 [1] and with SUDHL10 [2] was more than 33 µM in each case.

For the compound `Cn1nc(CN2CCCC2=O)c2c1COCCCCn1c(C(=O)O)c(CCCOc3cccc4ccccc34)c3cccc-2c31` (racemic) [Example 328, (rac)-1-methyl-7-[3-(naphthalen-1-yloxy)propyl]-3-[(2-oxopyrrolidin-1-yl)methyl]-1,10,11,12,13,15-hexahydropyrazolo[4′,3′:9,10][1,6]oxazacycloundecino[8,7,6-hi]indole-8-carboxylic Acid], the IC50 at MCL-1 is 0.0467 µM; with SUDHL5 [3], 1.87e-05 M; in the test with SUDHL10 [4], 1.9e-05 M; in the test on A2780, more than 3.3e-05 M; in the test with SUDHL5 [5], more than 3.3e-05 M; in the test with SUDHL10 [6], more than 3.3e-05 M. Besides, the concentration for a half-maximal effect (EC50) in the test with SUDHL5 [1] and with SUDHL10 [2] was more than 33 µM in each case.

Regarding `CN(C)Cc1nn(C)c2c1-c1cccc3c(CCCOc4cccc5ccccc45)c(C(=O)O)n(c13)CCCCOC2` (racemic) [Example 331, (rac)-3-[(dimethylamino)methyl]-1-methyl-7-[3-(naphthalen-1-yloxy)propyl]-1,10,11,12,13,15-hexahydropyrazolo[4′,3′:9,10][1,6]oxazacycloundecino[8,7,6-hi]indole-8-carboxylic Acid], the IC50 is 0.185 µM against MCL-1; more than 3.3e-05 M in the test on SUDHL5 [3]; more than 3.3e-05 M in the test with SUDHL10 [4]; more than 3.3e-05 M in the test with A2780; more than 3.3e-05 M in the test on SUDHL5 [5]; more than 3.3e-05 M in the test with SUDHL10 [6]. Moreover, the EC50 in the test on SUDHL5 [1] and with SUDHL10 [2] was more than 33 µM throughout.

Take `Cn1nc(CN2CCCCC2)c2c1COCCCCn1c(C(=O)O)c(CCCOc3cccc4ccccc34)c3cccc-2c31` (racemic) [Example 332, (rac)-1-methyl-7-[3-(naphthalen-1-yloxy)propyl]-3-(piperidin-1-ylmethyl)-1,10,11,12,13,15-hexahydropyrazolo[4′,3′:9,10][1,6]oxazacycloundecino[8,7,6-hi]indole-8-carboxylic Acid]: the IC50 against MCL-1 was 0.203 µM; in the test with SUDHL5 [3] it was 9.13e-06 M; in the test with SUDHL10 [4] it was 2.02e-05 M; in the test with A2780, more than 3.3e-05 M; with SUDHL5 [5] it was 1.94e-05 M; with SUDHL10 [6] it was more than 3.3e-05 M. Besides, the 50% effective concentration (EC50) in the test on SUDHL5 [1] was 18.9 µM; in the test on SUDHL10 [2] it was more than 33 µM.

For the compound `Cn1nc(CN2CCCC2)c2c1COCCCCn1c(C(=O)O)c(CCCOc3cccc4ccccc34)c3cccc-2c31` (racemic) [Example 335, (rac)-1-methyl-7-[3-(naphthalen-1-yloxy)propyl]-3-(pyrrolidin-1-ylmethyl)-1,10,11,12,13,15-hexahydropyrazolo[4′3′:9,10][1,6]oxazacycloundecino[8,7,6-hi]indole-8-carboxylic Acid], the IC50 came to 0.18 µM against MCL-1; 1.93e-05 M in the test on SUDHL5 [3]; 2.24e-05 M in the test on SUDHL10 [4]; 2.35e-05 M in the test on A2780; 2.57e-05 M with SUDHL5 [5]; 2.77e-05 M with SUDHL10 [6]. Moreover, the EC50 with SUDHL5 [1] was 27.2 µM; with SUDHL10 [2] it was more than 33 µM.

Take `Cn1nc(CN)c2c1COCCCCn1c(C(=O)O)c(CCCOc3cccc4ccccc34)c3cccc-2c31` (racemic) [Example 338, (rac)-3-(aminomethyl)-1-methyl-7-[3-(naphthalen-1-yloxy)propyl]-1,10,11,12,13,15-hexahydropyrazolo[4′,3′:9,10][1,6]oxazacycloundecino[8,7,6-hi]indole-8-carboxylic Acid]: the IC50 on MCL-1 was 0.048 µM; with SUDHL5 [3], more than 3.3e-05 M; with SUDHL10 [4], more than 3.3e-05 M; in the test with A2780 it was more than 3.3e-05 M; in the test with SUDHL5 [5] it was more than 3.3e-05 M; with SUDHL10 [6], more than 3.3e-05 M. Also, the EC50 in the test on SUDHL5 [1] and with SUDHL10 [2] was more than 33 µM each time.

As for `CC(=O)NCc1nn(C)c2c1-c1cccc3c(CCCOc4cccc5ccccc45)c(C(=O)O)n(c13)CCCCOC2` (racemic) [Example 339, (rac)-3-[(acetylamino)methyl]-1-methyl-7-[3-(naphthalen-1-yloxy)propyl]-1,10,11,12,13,15-hexahydropyrazolo[4′,3′:9,10][1,6]oxazacycloundecino[8,7,6-hi]indole-8-carboxylic Acid], the IC50 is 0.032 µM at MCL-1; more than 3.3e-05 M in the test with SUDHL5 [3]; more than 3.3e-05 M in the test with SUDHL10 [4]; more than 3.3e-05 M with A2780; more than 3.3e-05 M in the test with SUDHL5 [5]; more than 3.3e-05 M in the test on SUDHL10 [6]. Moreover, the EC50 in the test on SUDHL5 [1] and with SUDHL10 [2] was more than 33 µM throughout.

As to `CC(=O)N(C)Cc1nn(C)c2c1-c1cccc3c(CCCOc4cccc5ccccc45)c(C(=O)O)n(c13)CCCCOC2` (racemic) [Example 342, (rac)-3-{[acetyl(methyl)amino]methyl}-1-methyl-7-[3-(naphthalen-1-yloxy)propyl]-1,10,11,12,13,15-hexahydropyrazolo[4′,3′:9,10][1,6]oxazacycloundecino[8,7,6-hi]indole-8-carboxylic Acid], the IC50 was 0.0451 µM against MCL-1; 3.15e-05 M with SUDHL5 [3]; 1.9e-05 M in the test with SUDHL10 [4]; more than 3.3e-05 M with A2780; more than 3.3e-05 M in the test with SUDHL5 [5]; more than 3.3e-05 M with SUDHL10 [6]. In addition, the figures for the EC50 with SUDHL5 [1] and in the test with SUDHL10 [2] were 25 µM and more than 33 µM, respectively.

In the case of `Cn1nc(COCc2ccc(C(N)=O)cc2)c2c1COCCCCn1c(C(=O)O)c(CCCOc3cccc4ccccc34)c3cccc-2c31` (racemic) [Example 346, (rac)-3-{[(4-carbamoylbenzyl)oxy]methyl}-1-methyl-7-[3-(naphthalen-1-yloxy)propyl]-1,10,11,12,13,15-hexahydropyrazolo[4′,3′:9,10][1,6]oxazacycloundecino[8,7,6-hi]indole-8-carboxylic Acid], the IC50 against MCL-1 was 0.0142 µM; in the test on SUDHL5 [3], 9.09e-06 M; with SUDHL10 [4], 3.54e-06 M; in the test with A2780, 2.32e-05 M; in the test with SUDHL5 [5], 2.02e-05 M; in the test with SUDHL10 [6], more than 3.3e-05 M. Also, the EC50 turned out to be 25.1 µM with SUDHL5 [1] and 32.4 µM in the test with SUDHL10 [2].

Turning to `COc1ccc2c(CCCOc3cccc4ccccc34)c(C(=O)O)n3c2c1-c1c(nn(C)c1C)COCCCC3` (racemic) [Example 349, (rac)-4-methoxy-2,3-dimethyl-7-[3-(naphthalen-1-yloxy)propyl]-2,10,11,12,13,15-hexahydropyrazolo[4′,3′:9,10][1,6]oxazacycloundecino[8,7,6-hi]indole-8-carboxylic Acid], the IC50 on MCL-1 was 0.0819 µM; with SUDHL5 [3] it was 1.86e-05 M; with SUDHL10 [4], 1.67e-05 M; in the test on A2780, more than 3.3e-05 M; in the test on SUDHL5 [5] it was 2.43e-05 M; in the test with SUDHL10 [6], more than 3.3e-05 M. The EC50 with SUDHL5 [1] is 31 µM; in the test on SUDHL10 [2] it was more than 33 µM.

On to `CN1CCN(Cc2c3c(nn2C)COCCCCn2c(C(=O)O)c(CCCOc4cccc5ccccc45)c4cccc-3c42)CC1` (racemic) [Example 359, (rac)-2-methyl-3-[(4-methylpiperazin-1-yl)methyl]-7-[3-(naphthalen-1-yloxy)propyl]-2,10,11,12,13,15-hexahydropyrazolo[4′,3′:9,10][1,6]oxazacycloundecino[8,7,6-hi]indole-8-carboxylic Acid], for which the IC50 at MCL-1 is 0.075 µM; in the test with SUDHL5 [3], more than 3.3e-05 M; in the test on SUDHL10 [4] it was more than 3.3e-05 M; with A2780 it was more than 3.3e-05 M; in the test on SUDHL5 [5], more than 3.3e-05 M; in the test on SUDHL10 [6], more than 3.3e-05 M. The EC50 with SUDHL5 [1] and in the test with SUDHL10 [2] was more than 33 µM throughout.
